Experimental data from US9492464B2, “Composition for preventing or treating side effect of steroid in subject comprising acetylsalicylic acid and use thereof” (Samsung Electronics Co., Ltd., priority 2014, dated 2016).

Key:
Assay type in all cases: cell-based, mouse
glucocorticoid receptor = assay: Immunoblotting of phosphorylated glucocorticoid receptor (pGR) in differentiated C2C12 cells; conditions: 40, 400 or 4000 μM Aspirin pre-treatment 24 hours, then 2 μM dexamethasone 24 hours; as amount of Aspirin increases, FIG. 1
Procedure: First, C2C12 cell lines (mouse gastrocnemius muscle, ATCC® CRL-1772™) were seeded in a 60 mm dish in 10% FBS/DMEM and incubated at 37° C. in a 5% CO2 incubator. When the cells formed 70% confluent, the culture medium was replaced with 2% FBS/DMEM and the cells were cultured for 4 days to completely induce differentiation into muscle cells. C2C12 cell lines are mouse myoblast cell lines obtained by continuous culture of myoblast cells cultured from gastrocnemius muscle of C3H mice.
When C2C12 cells were completely differentiated into muscle cells, the culture medium was removed therefrom, and 4 ml of a fresh culture medium including 40 μM, 400 μM, or 4000 μM of Aspirin (Sigma Aldrich) was added thereto, and then the cells were cultured for 24 hours. 2 μM of dexamethasone (Sigma Aldrich) was added to the cultured cells and the cells were further cultured for 24 hours. A negative control group was not treated with acetylsalicylic acid and dexamethasone.
The culture medium was removed therefrom, and the cells were collected. Then, 500 μl of RIPA (20 mM Tris-HCl (pH 7.5), 150 mM NaCl, 1 mM Na2EDTA, 1 mM EGTA, 1% NP-40, 1% (w/v) sodium deoxycholate, 2.5 mM sodium pyrophosphate, 1 mM beta-glycerophosphate, 1 mM Na3VO4, and 1 μg/ml leupeptin) lysis buffer was added thereto. The cells were lysed to obtain lysates. […]

Atrogin-1 = assay: Real time PCR of Atrogin-1 mRNA in differentiated C2C12 cells; conditions: 400 μM Aspirin 24 hours, then 2 μM dexamethasone 24 hours, normalized to GAPDH, FIG. 3A
Procedure: (§1) As described above with reference to Example 1(2), C2C12 cells were completely differentiated into muscle cells, and 4 ml of a fresh culture medium including 400 μM of Aspirin (Sigma Aldrich) was added thereto, and then the cells were cultured for 24 hours. 2 μM of dexamethasone (Sigma Aldrich) was added to the cultured cells, and the cells were cultured for 24 hours. The culture medium was removed therefrom, and the cells were collected. A negative control group was not treated with acetylsalicylic acid and dexamethasone.
(§2) A Trizol reagent (Invitrogen) was added to the collected cells, and total RNA was separated therefrom according to manufacturer's protocols. Complementary DNA (cDNA) was synthesized from the separated total RNA by using a reverse transcriptase. Amounts of mRNA of Atrogin-1 and MuRF-1 were quantified using a real time PCR device (MyiQPCR instrument, BioRad) that is a device measuring SYBR Green. The results were normalized with respect to an amount of GAPDH mRNA. […]
(§3) Values obtained via amplification were normalized by GAPDH gene, and relative expression levels of mRNA of Atrogin-1 and MURF-1 were quantified. The quantified relative expression levels (arbitrary unit (AU)) of mRNA of Atrogin-1 and MURF-1 are illustrated in FIGS. 3A and 3B, respectively, […]

MuRF-1 = assay: Real time PCR of MuRF-1 mRNA in differentiated C2C12 cells; conditions: 400 μM Aspirin 24 hours, then 2 μM dexamethasone 24 hours, normalized to GAPDH, FIG. 3B
Procedure: as §1, §2, §3

With `CC(=O)Oc1ccccc1C(=O)O` [Aspirin, 2-(acetyloxy)benzoic acid] the “amount of glucocorticoid receptor GR phosphorylated by dexamethasone” value (glucocorticoid receptor) was “decreases”, the “expression of mRNA of Atrogin-1” value (Atrogin-1) was “did not increase” and the “expression of mRNA of MuRF1” value (MuRF-1) was “did not increase”.
